{"source": "patent US20040171688A1", "about": "“Carboxylic acids and derivatives thereof and pharmaceutical compositions containing them” (priority 1997, published 2004)", "target": "T1, HNF-4α (Rattus norvegicus, UniProt P22449)", "T1 sequence (P22449 1-464 isoform P22449-2)": "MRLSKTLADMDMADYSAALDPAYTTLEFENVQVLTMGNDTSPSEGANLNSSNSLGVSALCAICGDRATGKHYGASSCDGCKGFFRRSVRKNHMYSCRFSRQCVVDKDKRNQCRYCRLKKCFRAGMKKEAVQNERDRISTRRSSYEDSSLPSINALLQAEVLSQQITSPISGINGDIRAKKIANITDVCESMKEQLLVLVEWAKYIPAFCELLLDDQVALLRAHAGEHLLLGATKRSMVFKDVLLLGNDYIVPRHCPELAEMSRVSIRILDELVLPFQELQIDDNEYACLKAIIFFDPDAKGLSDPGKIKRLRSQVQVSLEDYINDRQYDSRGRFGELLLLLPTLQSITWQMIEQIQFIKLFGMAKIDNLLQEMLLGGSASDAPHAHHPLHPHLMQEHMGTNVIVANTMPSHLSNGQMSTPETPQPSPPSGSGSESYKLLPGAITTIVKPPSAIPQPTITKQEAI", "assay": "In vitro transcription assay induced by His-HNF-4α with HeLa nuclear extract", "assay_type": "biochemical", "set-up": "The full length HNF-4α1 cDNA cloned into 6His-pET11d vector was expressed in E.coli BL21 (DE3)plysS; 6His; made in house; host or cells: E. coli BL21 (DE3)plysS", "settings": "for HNF-4α transcriptional activity, agonist/antagonist character (summary): summary statement of Example 4", "procedure": "a. Representative experiments showing in vitro transcription of the test template in the presence of increasing concentrations of His-HNF-4I and in the absence (lanes 1-3, 7-9) or presence of 10 μM of added palmitoyl(16:0)-CoA (lanes 4-6) or stearoyl(18:0)-CoA (lanes 10,11) as indicated. Correctly initiated transcripts of the test and control templates are denoted by (→) and ? , respectively.\nb. HNF-4I-induced in vitro transcription in the absence (empty bars) or presence of 10 μM each of added palmitoyl(16:0)-CoA (filled bars) or stearoyl(18:0)-CoA (hatched bars). Fold transcription indicates the ratio of specific transcript produced by the test template over transcript from the control template normalized to the ratio observed without HNF-4a. The figure summarizes 5 independent experiments for each acyl-CoA. *-Significant as compared with the respective value in the absence of added ligand.\nReaction mixture contained 20 mM Hepes-KOH (pH 7.9), 5 mM MgCl2, 60 mM KCl, 8% glycerol, 2 mM DTT, 1 mM 3′-O-methyl-GTP, 10 units of T1RNase, 20 units of RNasin, 0.5 μg sonicated salmon sperm DNA and His-HNF-4α and test ligand as indicated. The mixture was preincubated for 30 min at 22° C. followed by adding 10 ng of pAdML200 control template consisting of the adenovirus major-late promoter (−400/+10) linked to a 200 bp G-less cassette and 200 ng of the test template consisting of three C3P copies of the apo CIII promoter sequence (−87/−66) upstream to a synthetic ovalbumin TATA box promoter in front of a 377 bp-G-less cassette. The mixture was further preincubated for 10 min at 22° C. followed by adding 40 μg of HeLa nuclear extract with additional preincubation for 30 min at 30° C. 0.5-mM ATP, 0.5 mM CTP, 25 μM UTP, and 10 μCi of [α-^32P]UTP (s.a. […], Amersham) were then added and the complete reaction mixture was incubated for 45 min at 30° C. in a final volume of 25 μl. The reaction was terminated by adding 175 μl of stop mix (0.1 M sodium acetate (pH 5.2), 10 mM EDTA, 0.1% SDS, 200 μg/ml tRNA) followed by phenol extraction and ethanol precipitation. RNA was resuspended in sample buffer containing 80% formamide and 10 mM Tris-HCl (pH 7.4) and separated on 5% polyacrylamide gel containing 7 M urea in TBE. Correctly initiated transcripts were quantitated by PhosphorImager analysis. The test DNA template was constructed by inserting into pC2AT19 plasmid a PCR-amplified oligonucleotide prepared by using the (C3P)3-TK-CAT plasmid as template and consisting of three copies of the C3P element of the Apo CIII promoter sequence (−87/−66) having an ECoRI and SSTI sites at the 5′ and 3′ ends, respectively. The resultant plasmid was cleaved with sphI and sacI and ligated to a synthetic oligonucleotide (5′-CGAGGTCCAC-[…]-3′) containing sequences of the HSV thymidine kinase promoter (−41/−29) and of the chicken ovalbumin promoter (−33/−21).\nThe effect of agonistic and antagonistic HNF-4α-ligands was further evaluated by analyzing the in vitro transcription rate, catalyzed by added HeLa nuclear extract and induced by recombinant HNF-4α, of a test template consisting of a 377 bp G-less cassette promoted by sequences of the HSV thymidine kinase and chicken ovalbumin promoters and enhanced by three C3P copies of the apo Clil gene promoter. Transcriptional activation by HNF-4α was evaluated in the presence and in the absence of added representative long chain fatty acyl-CoAs. […]"}
{"smiles": "CCCCCCCCCCCCCCCCCC(=O)SCCNC(=O)CCNC(=O)[C@H](O)C(C)(C)COP(=O)(O)OP(=O)(O)OC[C@H]1O[C@@H](n2cnc3c(N)ncnc32)[C@H](O)[C@@H]1OP(=O)(O)O", "note": "[Stearoyl(18:0)-CoA]", "values": [{"measurement": "effect on HNF-4α induced in vitro transcription", "setting": "10 μM added acyl-CoA (FIG. 3)", "value": "inhibited"}, {"measurement": "HNF-4α transcriptional activity, agonist/antagonist character (summary)", "value": "true antagonist"}]}
{"smiles": "CCCCCCCCCCCCCC(=O)SCCNC(=O)CCNC(=O)[C@H](O)C(C)(C)COP(=O)(O)OP(=O)(O)OC[C@H]1O[C@@H](n2cnc3c(N)ncnc32)[C@H](O)[C@@H]1OP(=O)(O)O", "note": "[myristoyl(14:0)-CoA, reference compound]", "values": [{"measurement": "HNF-4α transcriptional activity, agonist/antagonist character (summary)", "value": "activators"}]}
